Test results published in patent US20190367516A1 (Bayer Pharma Aktiengesellschaft, priority 2015, published 2019).
Like-named read-outs stand apart in the source and are kept apart here.

How the values were obtained:
human M2 receptor [1] = target: T1, human M2 receptor (Homo sapiens, UniProt P08172); type: cell-based; conditions: α >1 = positive cooperativity
T1 sequence (P08172 1-466): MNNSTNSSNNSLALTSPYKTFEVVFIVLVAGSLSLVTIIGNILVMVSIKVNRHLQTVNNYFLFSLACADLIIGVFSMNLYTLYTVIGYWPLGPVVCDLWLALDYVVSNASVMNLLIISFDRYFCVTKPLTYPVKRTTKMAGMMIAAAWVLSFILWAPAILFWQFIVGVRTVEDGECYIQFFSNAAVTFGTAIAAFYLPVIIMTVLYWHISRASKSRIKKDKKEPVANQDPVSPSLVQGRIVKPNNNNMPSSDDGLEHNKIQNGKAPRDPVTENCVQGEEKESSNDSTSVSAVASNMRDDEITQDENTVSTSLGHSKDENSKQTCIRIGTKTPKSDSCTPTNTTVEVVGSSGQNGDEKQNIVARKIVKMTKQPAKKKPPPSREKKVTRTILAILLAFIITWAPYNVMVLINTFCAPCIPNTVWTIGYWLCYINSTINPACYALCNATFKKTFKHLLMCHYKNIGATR

human M2 receptor [2] = target: T1, human M2 receptor; conditions: for Efficiency: boosting of the acetylcholine effect at EC20 acetylcholine concentration; for Emax: read-out: Efficiency, boosting of the acetylcholine effect at EC20 acetylcholine concentration
Text: Functional M2-GIRK1/4 Activation Test
The binding of orthosteric agonists (endogenous ligand: acetylcholine) to the M2 receptor leads to receptor activation or a change in conformation of the receptor in the manner of a shift in equilibrium in favour of the active receptor conformation.
The agonist-induced change in conformation of the M2 receptor results in a Gαi protein activation. […] Under physiological conditions, the result is then a selective efflux of potassium from the cell along the electrochemical gradient. […] The extent of hyperpolarization can therefore be regarded as a measure of the activation of the M2 receptor.
The test cell used is a recombinant CHO-DUKX cell line which has been stably transfected with cDNA coding for the human M2 receptor and with cDNA coding for both GIRK1/4 subunits (CHO-DUKX-M2-GIRK). The transmembrane potential, or the relative changes in the transmembrane potential as a function of substance addition or M2 activation, is determined by means of a voltage-sensitive dye (FLIPR Membrane Potential Assay Kit Blue, Molecular Devices # R8034) and the measurement of cell fluorescence using a proprietary fluorescence imaging instrument.
Determination of the Allosteric Potency of the Test Substances (EC50 Value)
The sowing medium consisted of MEM alpha medium (supplemented with 5% FCS, 2% Glutamax, no genticin).
For the particular measurement, the medium was removed and the cells were laden with the voltage-sensitive dye for at least 6 min at room temperature (30 μl of loading buffer per 384-well). This was followed, in a first measurement, by the determination of the fluorescence for the resting transmembrane potential for a period of 5 sec. Thereafter, 10 μl in each case of the test substances diluted in loading buffer were added, followed by a second measurement to determine the transmembrane potential for a period of 50 sec. Finally, the cells were admixed with 10 μl of agonist solution (acetylcholine dissolved in loading buffer). Acetylcholine was used at the concentration corresponding to the EC20, which had been determined in a preliminary test. The M2-mediated GIRK1/4 activation or hyperpolarization was then monitored in a third measurement over a period of 60 sec. The EC50 value (degree of allosteric potency of test compound) and the efficiency (measure of the boosting of the acetylcholine effect at an EC20 acetylcholine concentration) were determined with the aid of a 4-parameter logistic function (Hill function).

[3] = shift in the acetylcholine dose-response curve (Allosteric EC50 shift, GraphPad PRISM)
[4] = Receptor activity EC50, M2-GIRK1/4 activation test, acetylcholine at EC20, allosteric potency, in some cases mean values from two or more determinations
[5] = shift of acetylcholine dose-response curve (Allosteric EC50 shift)
[6] = Receptor activity EC50, allosteric potency at EC20 acetylcholine, M2-GIRK1/4 reporter cells, in some cases mean of two or more determinations

Structure (SMILES)	Cooperativity (alpha factor) (human M2 receptor [1]; [3])	EC50 (human M2 receptor [2]; [4]) [nM]	Cooperativity (alpha factor) (human M2 receptor [1]; [5])	EC50 (human M2 receptor [2]; [6]) [nM]	Efficiency (human M2 receptor [2]; M2-GIRK1/4 reporter cells) [%]	Emax (human M2 receptor [2]; M2-GIRK1/4 reporter cells) [%]
O=C(Nc1c(Cl)cccc1Cl)c1cn(-c2ccc(F)cc2F)c2nc(N3CC[C@H](O)C3=O)ccc2c1=O [Example 202, N-(2,6-Dichlorophenyl)-1-(2,4-difluorophenyl)-7-[(3S)-3-hydroxy-2-oxopyrrolidin-1-yl]-4-oxo-1,4-dihydro-1,8-naphthyridine-3-carboxamide]	18	89				
O=C(N[C@H](c1ccccc1Cl)C(F)(F)F)c1cn(-c2ccc(F)cc2F)c2nc(N3CCCC(O)C3=O)ccc2c1=O (single isomer, unassigned) [Example 208]	23	115				
CCC(NC(=O)c1cn(-c2ccc(F)cc2F)c2nc(N3CCC(O)C3)ccc2c1=O)C(F)(F)F (stereo in doubt) [Example 218, 1-(2,4-Difluorophenyl)-7-[3-hydroxypyrrolidin-1-yl]-4-oxo-N-[(2S)-1,1,1-trifluorobutan-2-yl]-1,4-dihydro-1,8-naphthyridine-3-carboxamide]	33	153				
CC(NC(=O)c1cn(-c2ccc(F)cc2F)c2nc(NCC(F)(F)F)ccc2c1=O)C(F)(F)F (stereo not shown) [Example 93, 1-(2,4-Difluorophenyl)-4-oxo-7-[(2,2,2-trifluoroethyl)amino]-N-[1,1,1-trifluoropropan-2-yl]-1,4-dihydro-1,8-naphthyridine-3-carboxamide]	8	213				
CC(C)CC(NC(=O)c1cn(-c2ccc(F)cc2F)c2nc(N3CC[C@H](F)C3)ccc2c1=O)C(F)(F)F (stereo partly drawn) [Example 65, 1-(2,4-Difluorophenyl)-7-[(3S)-3-fluoropyrrolidin-1-yl]-4-oxo-N-[1,1,1-trifluoro-4-methylpentan-2-yl]-1,4-dihydro-1,8-naphthyridine-3-carboxamide]	36	7				
CN(C)c1ccc2c(=O)c(C(=O)NCc3ccccc3C(F)(F)F)cn(-c3ccc(F)cc3F)c2n1 [Example 59, 1-(2,4-Difluorophenyl)-7-(dimethylamino)-4-oxo-N-[2-(trifluoromethyl)benzyl]-1,4-dihydro-1,8-naphthyridine-3-carboxamide]	11	94				
CCC(COC(F)(F)F)NC(=O)c1cn(-c2c(F)cc(F)cc2F)c2nc(N3C[C@@H](O)[C@H](O)C3)ccc2c1=O (single isomer, unassigned) [Example 578]			29	17	100.0	
CC(C)(CC(F)(F)F)NC(=O)c1cn(-c2c(F)cc(F)cc2F)c2nc(N3CC(O)C4(CC4)C3)ccc2c1=O (racemic) [Example 571, 7-[7-Hydroxy-5-azaspiro[2.4]hept-5-yl]-4-oxo-N-(4,4,4-trifluoro-2-methylbutan-2-yl)-1-(2,4,6-trifluorophenyl)-1,4-dihydro-1,8-naphthyridine-3-carboxamide]			33		94.0	
CCC(NC(=O)c1cn(-c2ccc(F)cc2F)c2nc(N3CCN(C(=O)OC)CC3)ccc2c1=O)C(F)(F)F (racemic) [Example 23, rac-Methyl 4-{8-(2,4-difluorophenyl)-5-oxo-6-[(1,1,1-trifluorobutan-2-yl)carbamoyl]-5,8-dihydro-1,8-naphthyridin-2-yl}piperazine-1-carboxylate]	20	96				
O=C(NC(c1c(F)cccc1F)C(F)(F)F)c1cn(-c2ccc(F)cc2F)c2nc(N3CC[C@H](F)C3)ccc2c1=O (mixture of isomers) [Example 241, 1-(2,4-Difluorophenyl)-N-[1-(2,6-difluorophenyl)-2,2,2-trifluoroethyl]-7-[(3S)-3-fluoropyrrolidin-1-yl]-4-oxo-1,4-dihydro-1,8-naphthyridine-3-carboxamide]	18	21				
CN(C)c1ccc2c(=O)c(C(=O)NC34CC5CC(C3)C(F)(F)C(C5)C4)cn(-c3ccc(F)cc3F)c2n1 [Example 39, 1-(2,4-Difluorophenyl)-N-(4,4-difluorotricyclo[3.3.1.1^3,7]dec-1-yl)-7-(dimethylamino)-4-oxo-1,4-dihydro-1,8-naphthyridine-3-carboxamide]	14	88				
CC[C@@H](NC(=O)c1cn(-c2c(F)cccc2F)c2nc(N3C[C@@H](O)[C@H](O)C3)ccc2c1=O)C(F)(F)F [Example 618, 1-(2,6-Difluorophenyl)-7-[(3R,4R)-3,4-dihydroxypyrrolidin-1-yl]-4-oxo-N-[(2R)-1,1,1-trifluorobutan-2-yl]-1,4-dihydro-1,8-naphthyridine-3-carboxamide]			30	39		99
O=C(NC(C(F)(F)F)C(F)(F)F)c1cn(-c2ccc(F)cc2F)c2nc(N3CC[C@H](F)C3)ccc2c1=O [Example 70, 1-(2,4-Difluorophenyl)-7-[(3S)-3-fluoropyrrolidin-1-yl]-N-(1,1,1,3,3,3-hexafluoropropan-2-yl)-4-oxo-1,4-dihydro-1,8-naphthyridine-3-carboxamide]	29	76				
CC12CCC(NC(=O)c3cn(-c4ccc(F)cc4F)c4nc(N5CC(O)CC5=O)ccc4c3=O)(CC1)CC2 (stereo not shown) [Example 181]	36	59				
CCC(NC(=O)c1cn(-c2ccc(F)cc2F)c2nc(N3C[C@@H](O)CC3=O)ccc2c1=O)C(F)(F)C(F)(F)F (single isomer, unassigned) [Example 557]			44	11		100
CC(C)C(NC(=O)c1cn(-c2c(F)cc(F)cc2F)c2nc(N3C[C@@H](O)CC3=O)ccc2c1=O)C(F)(F)F (single isomer, unassigned) [Example 527]			61	5		100
C[C@@H](COC(F)(F)F)NC(=O)c1cn(-c2c(F)cc(F)cc2F)c2nc(N3C[C@@H](O)CC3=O)ccc2c1=O [Example 339, 7-[(4S)-4-Hydroxy-2-oxopyrrolidin-1-yl]-4-oxo-N-[(2S)-1-(trifluoromethoxy)propan-2-yl]-1-(2,4,6-trifluorophenyl)-1,4-dihydro-1,8-naphthyridine-3-carboxamide]	26	44				
CC(C)C[C@H](NC(=O)c1cn(-c2c(F)cc(F)cc2F)c2nc(N3C[C@@H](O)[C@@H](O)C3)ccc2c1=O)C(F)(F)F [Example 573, 7-[(3R,4S)-3,4-Dihydroxypyrrolidin-1-yl]-4-oxo-N-[(2S)-1,1,1-trifluoro-4-methylpentan-2-yl]-1-(2,4,6-trifluorophenyl)-1,4-dihydro-1,8-naphthyridine-3-carboxamide]			57	12		100
COC(=O)N1CCN(c2ccc3c(=O)c(C(=O)Nc4c(Cl)cccc4Cl)cn(-c4c(F)cc(F)cc4F)c3n2)CC1 [Example 593, Methyl 4-{6-[(2,6-dichlorophenyl)carbamoyl]-5-oxo-8-(2,4,6-trifluorophenyl)-5,8-dihydro-1,8-naphthyridin-2-yl}piperazine-1-carboxylate]			29	17		89.5
CC(C)CC(NC(=O)c1cn(-c2ccc(F)cc2F)c2nc(N(C)CCF)ccc2c1=O)C(F)(F)F (racemic) [Example 107, rac-1-(2,4-Difluorophenyl)-7-[(2-fluoroethyl)(methyl)amino]-4-oxo-N-[1,1,1-trifluoro-4-methylpentan-2-yl]-1,4-dihydro-1,8-naphthyridine-3-carboxamide]	14	57				
CN(C)c1ccc2c(=O)c(C(=O)NCc3c(F)cccc3C(F)(F)F)cn(-c3ccc(F)cc3F)c2n1 [Example 60, 1-(2,4-Difluorophenyl)-7-(dimethylamino)-N-[2-fluoro-6-(trifluoromethyl)benzyl]-4-oxo-1,4-dihydro-1,8-naphthyridine-3-carboxamide]	8	155				
CC[C@@H](NC(=O)c1cn(-c2ccc(F)cc2F)c2nc(NCCF)ccc2c1=O)C(F)(F)F [Example 27, 1-(2,4-Difluorophenyl)-7-[(2-fluoroethyl)amino]-4-oxo-N-[(2R)-1,1,1-trifluorobutan-2-yl]-1,4-dihydro-1,8-naphthyridine-3-carboxamide]	20	89				
O=C(N[C@@H](C1CC1)C(F)(F)F)c1cn(-c2c(F)cc(F)cc2F)c2nc(N3CCN(CCO)C3=O)ccc2c1=O [Example 363, N-[(1 S)-1-Cyclopropyl-2,2,2-trifluoroethyl]-7-[3-(2-hydroxyethyl)-2-oxoimidazolidin-1-yl]-4-oxo-1-(2,4,6-trifluorophenyl)-1,4-dihydro-1,8-naphthyridine-3-carboxamide]	28	45				
